From US20200181117A1, “SUBSTITUTED 3-HETEROARYLOXY-1H-PYRAZOLES AND SALTS THEREOF AND THEIR USE AS HERBICIDAL ACTIVE SUBSTANCES” (BAYER CROPSCIENCE AKTIENGESELLSCHAFT, priority 2017, published 2020)

Assays:
Format in all cases: in vivo
Abutilon theophrasti [1] = assay: Post-emergence herbicidal action; conditions: 1280 g/ha, rated visually after about 3 weeks vs untreated controls
Description: (§1) A. Post-Emergence Herbicidal Action and Crop Plant Compatibility Seeds of monocotyledonous and dicotyledonous weeds and crop plants were placed in sandy loam in plastic or wood-fiber pots, covered with soil and cultivated in a greenhouse under controlled growth conditions. 2 to 3 weeks after sowing, the test plants were treated at the one-leaf stage. The compounds of the invention, formulated in the form of wettable powders (WP) or as emulsion concentrates (EC), were then sprayed onto the green parts of the plants as aqueous suspension or emulsion with addition of 0.5% additive at a water application rate of 600 l/ha (converted). After the test plants had been kept in the greenhouse under optimum growth conditions for about 3 weeks, the activity of the preparations was rated visually in comparison to untreated controls. For example, 100% activity=the plants have died, 0% activity=like control plants. Tables B1 to B15 below show the effects of selected compounds of the general formula (I) according to Table I on various harmful plants and an application rate corresponding to 1280 g/ha, which were obtained by the experimental procedure mentioned above.

Amaranthus retroflexus [2] = assay: Post-emergence herbicidal action; conditions: 1280 g/ha, rated visually after about 3 weeks vs untreated controls
Description: as §1

Pharbitis purpurea = assay: Post-emergence herbicidal action; conditions: 1280 g/ha, rated visually after about 3 weeks vs untreated controls
Description: as §1

Viola tricolor [3] = assay: Post-emergence herbicidal action; conditions: 1280 g/ha, rated visually after about 3 weeks vs untreated controls
Description: as §1

Abutilon theophrasti [4] = assay: Pre-emergence herbicidal action; conditions: 1280 g/ha, scored visually after about 3 weeks vs untreated controls
From the text: (§2) Pre-Emergence Herbicidal Action and Crop Plant Compatibility Seeds of monocotyledonous and dicotyledonous weed plants and crop plants were placed in plastic or wood fiber pots and covered with soil. The compounds of the invention, formulated in the form of wettable powders (WP) or as emulsion concentrates (EC), were then applied onto the surface of the covering soil as aqueous suspension or emulsion with addition of 0.5% additive at a water application rate of 600 l/ha (converted). After the treatment, the pots were placed in a greenhouse and kept under good growth conditions for the test plants. After about 3 weeks, the effect of the preparations was scored visually in comparison with untreated controls as percentages. For example, 100% activity=the plants have died, 0% activity=like control plants. Tables C1 to C14 below show the effects of selected compounds of the general formula (I) according to Table I on various harmful plants and an application rate corresponding to 1280 g/ha, which were obtained by the experimental procedure mentioned above.

Amaranthus retroflexus [5] = assay: Pre-emergence herbicidal action; conditions: 1280 g/ha, scored visually after about 3 weeks vs untreated controls
From the text: as §2

Setaria viridis [6] = assay: Pre-emergence herbicidal action; conditions: 1280 g/ha, scored visually after about 3 weeks vs untreated controls
From the text: as §2

Stellaria media [7] = assay: Pre-emergence herbicidal action; conditions: 1280 g/ha, scored visually after about 3 weeks vs untreated controls
From the text: as §2

Viola tricolor [8] = assay: Pre-emergence herbicidal action; conditions: 1280 g/ha, scored visually after about 3 weeks vs untreated controls
From the text: as §2

Polygonum convolvulus [9] = assay: Post-emergence herbicidal action; conditions: 1280 g/ha, rated visually after about 3 weeks vs untreated controls
Description: as §1

Stellaria media [10] = assay: Post-emergence herbicidal action; conditions: 1280 g/ha, rated visually after about 3 weeks vs untreated controls
Description: as §1

Alopecurus myosuroides [11] = assay: Pre-emergence herbicidal action; conditions: 1280 g/ha, scored visually after about 3 weeks vs untreated controls
From the text: as §2

Avena fatua = assay: Pre-emergence herbicidal action; conditions: 1280 g/ha, scored visually after about 3 weeks vs untreated controls
From the text: as §2

Matricaria inodora = assay: Pre-emergence herbicidal action; conditions: 1280 g/ha, scored visually after about 3 weeks vs untreated controls
From the text: as §2

Polygonum convolvulus [12] = assay: Pre-emergence herbicidal action; conditions: 1280 g/ha, scored visually after about 3 weeks vs untreated controls
From the text: as §2

Veronica persica = assay: Pre-emergence herbicidal action; conditions: 1280 g/ha, scored visually after about 3 weeks vs untreated controls
From the text: as §2

Alopecurus myosuroides [13] = assay: Post-emergence herbicidal action; conditions: 1280 g/ha, rated visually after about 3 weeks vs untreated controls
Description: as §1

Setaria viridis [14] = assay: Post-emergence herbicidal action; conditions: 1280 g/ha, rated visually after about 3 weeks vs untreated controls
Description: as §1

Echinochloa crus-galli = assay: Pre-emergence herbicidal action; conditions: 1280 g/ha, scored visually after about 3 weeks vs untreated controls
From the text: as §2

Hordeum murinum = assay: Pre-emergence herbicidal action; conditions: 1280 g/ha, scored visually after about 3 weeks vs untreated controls
From the text: as §2

Lolium rigidum = assay: Pre-emergence herbicidal action; conditions: 1280 g/ha, scored visually after about 3 weeks vs untreated controls
From the text: as §2

| SMILES | herbicidal activity on Abutilon theophrasti (Abutilon theophrasti [1]) [%] | herbicidal activity on Amaranthus retroflexus (Amaranthus retroflexus [2]) [%] | herbicidal activity on Viola tricolor (Viola tricolor [3]) [%] | herbicidal activity on Abutilon theophrasti (Abutilon theophrasti [4]) [%] | herbicidal activity on Amaranthus retroflexus (Amaranthus retroflexus [5]) [%] | herbicidal activity on Setaria viridis (Setaria viridis [6]) [%] | herbicidal activity on Stellaria media (Stellaria media [7]) [%] | herbicidal activity on Viola tricolor (Viola tricolor [8]) [%] | herbicidal activity on Polygonum convolvulus (Polygonum convolvulus [9]) [%] | herbicidal activity on Alopecurus myosuroides (Alopecurus myosuroides [11]) [%] | herbicidal activity on Matricaria inodora (Matricaria inodora) [%] | herbicidal activity on Polygonum convolvulus (Polygonum convolvulus [12]) [%] | herbicidal activity on Veronica persica (Veronica persica) [%] | herbicidal activity on Echinochloa crus-galli (Echinochloa crus-galli) [%] | also measured |
| --- | --- | --- | --- | --- | --- | --- | --- | --- | --- | --- | --- | --- | --- | --- | --- |
| CCc1c(Sc2cccc(Cl)c2)c(Oc2ncc(F)cn2)nn1C [Example I-034] | 80 | 100 | 100 | 80 | 100 | 100 | 90 | 100 |  |  |  |  |  |  | herbicidal activity on Pharbitis purpurea (Pharbitis purpurea): 90% |
| CCc1c(Sc2cccc(Cl)c2)c(Oc2ncccn2)nn1C [Example I-035] | 100 |  | 100 |  | 90 | 90 |  | 100 | 100 |  |  |  |  |  | herbicidal activity on Stellaria media (Stellaria media [10]): 80% |
| CC(C)n1cc(Sc2ccc(F)cc2)c(Oc2ncccn2)n1 [Example I-039] |  |  | 100 | 100 | 100 | 90 | 100 | 100 |  | 100 | 90 | 90 | 100 |  | herbicidal activity on Avena fatua (Avena fatua): 90% |
| CCn1cc(Sc2ccccc2)c(Oc2ncccn2)n1 [Example I-042] |  |  |  |  | 80 | 80 | 100 | 90 | 80 |  | 90 |  | 100 |  |  |
| CCc1c(Sc2ccccc2)c(Oc2ncccn2)nn1C [Example I-063] | 100 | 100 | 100 | 100 | 100 | 100 | 90 | 100 |  | 100 | 100 | 100 |  | 100 | herbicidal activity on Alopecurus myosuroides (Alopecurus myosuroides [13]): 100%; herbicidal activity on Setaria viridis (Setaria viridis [14]): 80%; herbicidal activity on Avena fatua (Avena fatua): 100%; herbicidal activity on Hordeum murinum (Hordeum murinum): 100% |
| CCc1c(Sc2ccc(F)cc2)c(Oc2ncccn2)nn1C [Example I-064] | 80 | 100 | 100 | 100 | 100 | 100 | 100 | 100 | 100 | 90 | 90 | 100 | 100 | 90 | herbicidal activity on Setaria viridis (Setaria viridis [14]): 100%; herbicidal activity on Stellaria media (Stellaria media [10]): 100% |
| Cc1ccnc(Oc2nn(C)c(C)c2Sc2cccc(Cl)c2)n1 [Example I-096] | 80 |  |  | 100 | 100 | 100 | 90 | 100 |  | 100 | 100 | 100 | 100 | 80 |  |
| Cc1c(Sc2ccc(F)cc2F)c(Oc2ncc(F)cn2)nn1C [Example I-115] | 100 | 100 | 100 | 100 | 100 | 100 | 90 | 100 | 90 | 90 | 90 | 90 | 100 | 100 | herbicidal activity on Setaria viridis (Setaria viridis [14]): 100%; herbicidal activity on Stellaria media (Stellaria media [10]): 100%; herbicidal activity on Lolium rigidum (Lolium rigidum): 80% |
| CCn1cc(Sc2ccc(F)cc2)c(Oc2ncc(Cl)cn2)n1 [Example I-121] |  | 80 | 80 |  | 100 | 90 | 80 | 100 | 80 |  |  | 90 | 100 |  |  |
| CCn1cc(Sc2ccccc2)c(Oc2ncc(Cl)cn2)n1 [Example I-138] |  |  | 80 | 80 |  | 100 |  | 90 |  |  |  | 80 | 100 |  |  |
| COc1cnc(Oc2nn(C)c(C)c2Sc2ccc(F)cc2Cl)nc1 [Example I-156] |  | 100 | 100 | 90 | 100 | 100 | 100 | 100 | 80 |  | 100 | 100 |  | 80 |  |
| CCn1cc(Sc2ccc(Cl)cc2)c(Oc2ncc(F)cn2)n1 [Example I-160] |  |  | 100 |  |  |  |  | 100 |  |  |  | 80 | 100 |  |  |
| CCc1c(Sc2cccc(F)c2)c(Oc2ncc(F)cn2)nn1C [Example I-203] | 100 | 100 | 100 | 90 | 100 | 100 | 80 | 90 |  | 90 | 80 | 80 | 100 | 80 | herbicidal activity on Pharbitis purpurea (Pharbitis purpurea): 90%; herbicidal activity on Setaria viridis (Setaria viridis [14]): 90%; herbicidal activity on Stellaria media (Stellaria media [10]): 90% |
| Cn1cc(Sc2ccc(Cl)cc2)c(Oc2cnc(Cl)nc2)n1 [Example I-230] |  |  | 80 |  |  |  |  |  |  |  |  |  |  |  |  |
